Patent publication US7317003B2, “Small peptides having anti-angiogenic and endothelial cell inhibition activity” (National University of Singapore, priority 1998, dated 2008)
Where a SMILES comes first, the peptide text is derived from it.

Key:
[1] = test system: bovine aorta endothelial cell (BAE); format: cell-based; settings: 72 h; for inhibition of BAE cell proliferation (in words): bFGF 1 ng/ml
Procedure: The peptides were tested in an in vitro bovine aorta endothelial cell (BAE) proliferation assay for their ability to inhibit BAE cell proliferation. Cells were plated into 24-well culture plates at 1.25×10^4 cells/well in complete SFM-endothelial medium (Gibco, USA). After 24 h, the medium was removed and various amounts of peptides were added into the wells in 0.5 ml of SFM-endothelial medium without bFGF. After 30 minutes incubation, bFGF was added into each well at a final concentration of 1 ng/ml together with another 0.5 ml of SFM-endothelial medium. Seventy-two hours later, cells were trypsinized and counted using a hemocytometer. Commercial E. coli recombinant human angiostatin (1 μM) was used as a control in the experiments.
Peptides were tested in an in vitro bovine aorta endothelial cell (BAE) proliferation assay for their ability to inhibit BAE cell proliferation. Cells were plated into 24-well culture plates at the number of 1.25×10^4/well in complete SFM-endothelial media (Gibco, USA). After 24 hours, the medium was removed and various amounts of peptides were added into the wells in 0.5 ml of SFM-endothelial medium without bFGF. After 30 minutes incubation, bFGF was added into each well at a final concentration of 1 ng/ml together with another 0.5 ml of SFM-endothelial medium. Seventy-two hours later, cells were trypsinized and counted using a hemocytometer. […] The IC50 of the Endo-2, -3 and -4 peptides is estimated to be 0.4 uM, 0.3 uM and 2 uM respectively.

[2] = test system: chick embryo chorioallantoic membrane (CAM); assay: chick embryo chorioallantoic membrane (CAM) in vivo angiogenesis assay; settings: for inhibition of chick CAM angiogenesis (in words): peptide on cover slip, compared to PBS control
Procedure: Since peptides Angio-2, Angio-3 and Angio-4 all inhibited BAE cell proliferation, they were also tested in the chick embryo chorioallantoic membrane (CAM) in vivo angiogenesis assay (7). In this assay, the peptides are coated onto 2-3 mm glass squares cut from microscope cover slips. […] Peptide Angio-3 reduced microvessel density at the very low dose of 12 pg/cover slip (the lowest dose tested, comparing to a PBS control). As a positive control, recombinant angiostatin at the dose of 100 ug/cover slip was tested in the same experiment. The amount of inhibition (judging from the extent of reduction in microvessel density) from 100 ug recombinant angiostatin is equivalent to 1.2 ug of Angio-3 peptide.

[3] = test system: chick embryo chorioallantoic membrane (CAM); assay: as above; settings: 10 day embryo, 12 ug/cover slip
BAE cells = assay: BAE cell cytotoxicity by trypan blue staining and cellular morphology; format: cell-based, bovine; settings: 20 μM, trypan blue staining and microscopic cellular morphology
Procedure: The IC50 of the three peptides are about 2 mM, 20 nM and 200 uM respectively.

[4] = test system: Human hepatoma cell line HepG2; settings: mouse, in vivo, 15 mg/kg, 12 h
Procedure: Human hepatoma cell line HepG2 was cultured and 1 million cells were injected subcutaneously into the right back of each 6 weeks old BALB/c nude mouse. Visible tumors appear from about 2 weeks after tumor cell injection. Mice with tumors were then randomly grouped and injected with the peptide at 300 μg/mouse every 12 h (16-19 g average weight). […] Tumor sizes were measured with a caliper every three days and volumes calculated using the formula (width)^2×length×0.52. Statistical analyses were done using student t-test using the SigmaStat software (SPSS, USA). Tumors are angiogenesis dependent. To test if peptide angio-3 can inhibit tumor growth in vivo, human hepatoma HepG2 cells were injected subcutaneously into nude mice to induce tumor formation. Tumor nodules appear in about 15-18 days after tumor cell injection. Peptide was then injected at a distant site from the tumor into tumor bearing mice at 15 mg/kg every 12 h for up to a month. […] Experiments were terminated when the control group tumors started to show necrosis.

[5] = test system: primary tumor growth and metastasis; settings: mice; cited from earlier work
[6] = 100 mg/kg/day; cited from earlier work
[7] = test system: bovine aorta endothelial cell (BAE); settings: reported in reference 5; cited from earlier work

IC50 [1] [µM] | Molecule | inhibition of BAE cell proliferation (in words) [1] | inhibition of chick CAM angiogenesis (in words) [2] | also measured
~2000 | CC[C@H](C)[C@H](NC(=O)[C@H](Cc1ccc(O)cc1)NC(=O)CNC(=O)[C@H](Cc1c[nH]cn1)NC(=O)[C@H](C)NC(=O)[C@H](Cc1c[nH]cn1)NC(=O)[C@@H]1CCCN1C(=O)[C@@H](N)CO)C(=O)N1CCC[C@H]1C(=O)N[C@@H](CO)C(=O)O [Angio-2] (H-SPHAHGYIPS-OH; N-terminus and C-terminus assumed) | inhibited BAE cell proliferation in a dose-dependent manner | inhibited chick CAM angiogenesis | inhibition of chick CAM angiogenesis (FIG. 5) [3]: Inhibition of chick CAM angiogenesis
~0.02 | C[C@@H](O)[C@H](N)C(=O)N1CCC[C@H]1C(=O)N[C@@H](Cc1c[nH]cn1)C(=O)N[C@H](C(=O)N[C@@H](Cc1c[nH]cn1)C(=O)N[C@@H](CC(N)=O)C(=O)N[C@@H](CCCNC(=N)N)C(=O)N[C@H](C(=O)N1CCC[C@H]1C(=O)N[C@@H](CCC(=O)O)C(=O)O)[C@@H](C)O)[C@@H](C)O [Angio-3] (H-TPHTHNRTPE-OH) |  |  | cell cytotoxicity with BAE cells (BAE cells): No obvious cell cytotoxicity; inhibition of HepG2 tumor growth [4]: about 40%
~200 | C[C@@H](O)[C@H](N)C(=O)N1CCC[C@H]1C(=O)N[C@@H](Cc1c[nH]cn1)C(=O)N[C@@H](CCCNC(=N)N)C(=O)N[C@@H](Cc1c[nH]cn1)C(=O)N[C@@H](CCC(N)=O)C(=O)N[C@@H](CCCCN)C(=O)N[C@H](C(=O)N1CCC[C@H]1C(=O)N[C@@H](CCC(=O)O)C(=O)O)[C@@H](C)O [Angio-4] (H-TPHRHQKTPE-OH; N-terminus and C-terminus assumed) | inhibited BAE cell proliferation in a dose-dependent manner | inhibited chick CAM angiogenesis | inhibition of chick CAM angiogenesis (FIG. 3, 4) ([2]; 4 day embryo, 120 ug/cover slip): Inhibition of chick CAM angiogenesis
~0.4 | CC(C)C[C@H](NC(=O)[C@@H]1CCCN1C(=O)[C@@H](NC(=O)[C@H](CC(N)=O)NC(=O)[C@H](CC(C)C)NC(=O)[C@H](C)NC(=O)[C@@H](NC(=O)[C@H](CC(C)C)NC(=O)[C@H](Cc1c[nH]cn1)NC(=O)[C@H](CC(C)C)NC(=O)[C@@H](NC(=O)[C@@H]1CCCN1C(=O)[C@@H](N)CCC(N)=O)C(C)C)C(C)C)[C@@H](C)O)C(=O)O [Endo-2] (H-QPVLHLVALNTPL-OH; N-terminus and C-terminus assumed) | inhibited BAE cell proliferation in a dose-dependent manner |  | 
~0.3 | CC[C@H](C)[C@H](NC(=O)[C@@H]1CCCN1C(=O)[C@@H](N)C(C)C)C(=O)N[C@H](C(=O)N[C@@H](CC(N)=O)C(=O)N[C@@H](CC(C)C)C(=O)N[C@@H](CCCCN)C(=O)N[C@@H](CC(=O)O)C(=O)N[C@@H](CCC(=O)O)C(=O)N[C@H](C(=O)N[C@@H](CC(C)C)C(=O)N[C@@H](CO)C(=O)N1CCC[C@H]1C(=O)N[C@@H](CO)C(=O)O)C(C)C)C(C)C [Endo-3] (H-VPIVNLKDEVLSPS-OH; N-terminus and C-terminus assumed) | inhibited BAE cell proliferation in a dose-dependent manner |  | 
~2 | CC(C)[C@H](NC(=O)[C@H](CO)NC(=O)[C@H](CCCCN)NC(=O)[C@H](CCC(N)=O)NC(=O)[C@@H]1CCCN1C(=O)[C@H](Cc1c[nH]c2ccccc12)NC(=O)[C@H](C)NC(=O)[C@@H]1CCCN1C(=O)[C@@H](N)Cc1c[nH]cn1)C(=O)N[C@@H](Cc1c[nH]c2ccccc12)C(=O)N[C@@H](Cc1c[nH]cn1)C(=O)NCC(=O)N[C@@H](CO)C(=O)N[C@@H](CC(=O)O)C(=O)N1CCC[C@H]1C(=O)N[C@@H](CO)C(=O)O [Endo-4] (H-HPAWPQKSVWHGSDPS-OH; N-terminus and C-terminus assumed) | inhibited BAE cell proliferation in a dose-dependent manner |  | inhibition of chick CAM angiogenesis (FIG. 8) ([2]; 10 day embryo, 1.8 μg/coverslip): Inhibition of chick CAM angiogenesis
 | Endo-1: endostatin-derived small peptide (SPHNSYIVLPI; Mammalian; Endo-1) | only a slight inhibition effect at high doses |  | 
 | angiostatin |  |  | dose at which inhibition of metastasis is observed [5]: about 1 mg/kg/day; dose at which inhibition of primary tumor growth is observed [5]: about 10 mg/kg/day; toxicity in mice [6]: without observable toxicity; reported IC50 range, endothelial cell proliferation [7]: nanomolar range
 | fVEGF: peptide designed from Zebrafish VEGF (YPDEIEHTYIPS; Mammalian; fVEGF) |  | dose-dependent inhibition of CAM angiogenesis | 
 | hFLT2-5: further N-terminal truncation of hFLT2 (KKFPL; Mammalian; hFLT2-5) |  | non-functional peptide | 
 | hFLT2-7: further N-terminal truncation of hFLT2 (TLKKFPL; Mammalian; hFLT2-7) |  | non-functional peptide | 
 | hFLT2: small peptide designed from Ig domain 2 of the extracellular region of FLT-1 (SPNITVTLKKFPL; Mammalian; hFLT2) |  | very potent angiogenesis inhibition activity | 
 | mVEGF: peptide designed from mammalian VEGF sequences (YPDEIEYIFKPS; Mammalian; mVEGF) |  | dose-dependent inhibition of CAM angiogenesis | inhibition of chick CAM angiogenesis (FIG. 9A-9B) ([2]; 13 day embryo, various doses, 0 and 40 hours incubation): Inhibition of chick CAM angiogenesis
